As usually defined, the IC50 is the point on the concentration scale where inhibition reaches its midpoint.

Consider 11 compounds from ChEMBL document CHEMBL4043248, “Structure-activity relationship study of β-oxidation resistant indole-based 5-oxo-6,8,11,14-eicosatetraenoic acid (5-oxo-ETE) receptor antagonists” (Bioorg Med Chem Lett, 2017).

Chain of Oxoeicosanoid receptor 1 (Q8TDS5 whole entry): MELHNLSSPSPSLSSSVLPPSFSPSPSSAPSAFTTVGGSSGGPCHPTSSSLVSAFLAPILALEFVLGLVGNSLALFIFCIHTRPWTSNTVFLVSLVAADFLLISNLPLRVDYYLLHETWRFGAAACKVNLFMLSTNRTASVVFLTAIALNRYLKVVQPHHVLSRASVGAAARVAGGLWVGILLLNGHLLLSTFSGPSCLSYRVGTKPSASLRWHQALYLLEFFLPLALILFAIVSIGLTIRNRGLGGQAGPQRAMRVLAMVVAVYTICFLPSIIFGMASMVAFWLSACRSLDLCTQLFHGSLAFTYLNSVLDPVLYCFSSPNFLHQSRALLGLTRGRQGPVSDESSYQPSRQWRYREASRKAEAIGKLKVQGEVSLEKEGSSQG

The assay addresses Oxoeicosanoid receptor 1 (Homo sapiens, UniProt Q8TDS5). The experiment in a line: Antagonist activity at OXE receptor in human neutrophils assessed as inhibition of 5-oxo-ETE-induced calcium mobilization incubated for 2 mins followed by 5-oxo-ETE addition measured after 1 min by fluorescence assay. Type of assay: functional. On the technique in general: Calcium assays in cells follow changes in intracellular calcium, usually with a dye or a luminescent sensor.
Consider `CCCCCCc1c(C(=O)CC(C)CC(=O)O)c2cc(Cl)ccc2n1C` (stereo unspecified), for which the IC50 was 16 to 20 nM.
For `CCCCCCc1c(C(=O)C[C@@H](C)CC(=O)O)c2cc(Cl)ccc2n1C` the value was 2700 nM; for `CCCCCCc1c(C(=O)C(C)(C)CCC(=O)O)c2cc(Cl)ccc2n1C`, 8150 nM.
Take `CCCCCCc1c(C(=O)c2cccc(C(=O)O)c2)c2cc(Cl)ccc2n1C`: the concentration for half-maximal inhibition (IC50) was found to be 1120 nM.
Take `CCCCCCc1c(C(=O)CC(C)(C)CC(=O)O)c2cc(Cl)ccc2n1C`: the IC50 amounted to 1330 nM.
For `CCCCCCc1c(C(=O)CC2(CC(=O)O)CC2)c2cc(Cl)ccc2n1C` the value was 580 nM; for `CCCCCCCCCCCc1c(C(=O)CC(C)CC(=O)O)c2cc(Cl)ccc2n1C` (stereo unspecified), 23 nM.
As to `CCCCCCc1c(C(=O)c2ccc(C(=O)O)cc2)c2cc(Cl)ccc2n1C`, the IC50 came out at 1360 nM.
Under `CCCCCCc1c(C(=O)CC2(CC(=O)O)CCC2)c2cc(Cl)ccc2n1C` stands 720 nM; under `CCCCCCc1c(C(=O)COCC(=O)O)c2cc(Cl)ccc2n1C`, 5500 nM.
As for `CCCCCCc1c(C(=O)CCC(C)(C)C(=O)O)c2cc(Cl)ccc2n1C`, the IC50 was determined as 4060 nM.
